Measured values taken from patent US20260347338A1, “PYRIMIDINE/PYRIDINE DERIVATIVES OR SALTS THEREOF AND PHARMACEUTICAL COMPOSITIONS COMPRISING THE SAME” (YUHAN CORPORATION, priority 2023, published 2026).
Where a name gives a salt, the structure may show the parent alone.

The compounds below were run against T1, human recombinant HPK1 (Homo sapiens, UniProt Q92918) (assay: Inhibitory activity against human recombinant HPK1 (TR-FRET)). Conditions: ULight-p70S6K peptide, ATP at Km, room temperature, 1 hour, 0.32 to 1000 nM compound.
T1 construct: purchased BPS Bioscience
T1 sequence (Q92918 whole entry): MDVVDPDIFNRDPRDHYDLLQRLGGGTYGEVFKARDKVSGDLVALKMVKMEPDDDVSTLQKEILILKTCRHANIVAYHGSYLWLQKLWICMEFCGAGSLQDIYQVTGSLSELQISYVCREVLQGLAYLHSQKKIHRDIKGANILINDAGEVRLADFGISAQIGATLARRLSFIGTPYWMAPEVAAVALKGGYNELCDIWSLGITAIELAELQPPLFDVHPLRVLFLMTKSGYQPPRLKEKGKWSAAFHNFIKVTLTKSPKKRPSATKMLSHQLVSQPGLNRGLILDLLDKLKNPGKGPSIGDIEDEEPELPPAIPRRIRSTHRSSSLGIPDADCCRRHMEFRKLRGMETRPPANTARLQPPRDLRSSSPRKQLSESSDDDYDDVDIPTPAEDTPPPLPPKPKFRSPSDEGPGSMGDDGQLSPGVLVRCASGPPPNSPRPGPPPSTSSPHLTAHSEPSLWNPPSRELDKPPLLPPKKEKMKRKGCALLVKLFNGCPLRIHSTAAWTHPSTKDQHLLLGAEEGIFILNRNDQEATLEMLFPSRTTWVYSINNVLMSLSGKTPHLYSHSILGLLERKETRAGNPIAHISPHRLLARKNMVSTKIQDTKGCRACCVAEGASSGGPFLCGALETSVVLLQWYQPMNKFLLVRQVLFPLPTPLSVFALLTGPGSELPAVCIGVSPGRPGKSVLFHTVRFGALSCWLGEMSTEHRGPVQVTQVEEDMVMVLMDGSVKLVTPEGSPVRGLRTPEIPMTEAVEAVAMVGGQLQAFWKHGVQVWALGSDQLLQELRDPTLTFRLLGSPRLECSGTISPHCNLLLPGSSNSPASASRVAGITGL
Type: biochemical
Summary of the method: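 IC50 classes A–D use 10, 50 and 100 nM cut-offs, derived from TR-FRET signal inhibition relative to DMSO controls. Human recombinant HPK1 phosphorylated ULight-p70S6K peptide at Km ATP for 1 h, room temperature, pH 7.4; test range 0.32–1000 nM final, detection with Eu-labelled antibody after EDTA quench.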

| Compound | IC50 |
| --- | --- |
| COc1cccc(F)c1-c1nccc(Nc2cc(N3CCC[C@H](O)C3)c(-c3cnn(C(C)C)c3)cn2)n1 [Example 13, (S)-1-(2-((2-(2-fluoro-6-methoxyphenyl)pyrimidin-4-yl)amino)-5-(1-isopropyl-1H-pyrazol-4-yl)pyridin-4-yl)piperidin-3-ol] | ≤ 10 nM |
| COc1cc(F)cc(F)c1-c1nc(Nc2cc(N3CCC[C@H](N)C3)c(-c3cnn(C(F)F)c3)cn2)ccc1C#N [Example 310, 6-((4-((S)-3-aminopiperidin-1-yl)-5-(1-(difluoromethyl)-1H-pyrazol-4-yl)pyridin-2-yl)amino)-2-(2,4-difluoro-6-methoxyphenyl)nicotinonitrile hydrochloride] | ≤ 10 nM |
| COc1cccc(F)c1-c1nccc(Nc2cc(N3CCC[C@H](O)C3)c(-c3ccc(CN4CCOCC4)nc3)cn2)n1 [Example 32, (S)-1-(6-((2-(2-fluoro-6-methoxyphenyl)pyrimidin-4-yl)amino)-6′-(morpholinomethyl)-[3,3′-bipyridin]-4-yl)piperidin-3-ol] | 10 to 50 nM |
| COc1cc(F)cc(F)c1-c1nc(Nc2cc(N3CCC[C@H](N)C3)c(-c3cnn(C4CCOCC4)c3)cn2)ccc1C#N [Example 309, 6-((4-((S)-3-aminopiperidin-1-yl)-5-(1-(tetrahydro-2H-pyran-4-yl)-1H-pyrazol-4-yl)pyridin-2-yl)amino)-2-(2,4-difluoro-6-methoxyphenyl)nicotinonitrile hydrochloride] | ≤ 10 nM |
| COc1cccc(F)c1-c1nccc(Nc2cc(N3C[C@@H](N)C[C@H](F)C3)c(-c3cnn(CC(F)(F)F)c3)cn2)n1 [Example 332, N-(4-((3S,5S)-3-amino-5-fluoropiperidin-1-yl)-5-(1-(2,2,2-trifluoroethyl)-1H-pyrazol-4-yl)pyridin-2-yl)-2-(2-fluoro-6-methoxyphenyl)pyrimidin-4-amine hydrochloride] | ≤ 10 nM |
| COc1cc(F)cc(F)c1-c1nccc(Nc2cc(N3CCC[C@H](N)C3)c(C#CC3(C)CCOCC3)cn2)n1 [Example 311, (S)-N-(4-(3-aminopiperidin-1-yl)-5-((4-methyltetrahydro-2H-pyran-4-yl)ethynyl)pyridin-2-yl)-2-(2,4-difluoro-6-methoxyphenyl)pyrimidin-4-amine] | ≤ 10 nM |
| COc1cccc(F)c1-c1nccc(Nc2cc(N3CCC[C@H](O)C3)c(-c3ccc(CN4CCC(O)C4)nc3)cn2)n1 (stereo partly drawn) [Example 43, (3S)-1-(6-((2-(2-fluoro-6-methoxyphenyl)pyrimidin-4-yl)amino)-6′-((3-hydroxypyrrolidin-1-yl)methyl)-[3,3′-bipyridin]-4-yl)piperidin-3-ol] | ≤ 10 nM |
| COc1cccc(F)c1-c1nc(Nc2cc(N3CCC[C@H](N)C3)c(-c3cnn(C4CC4)c3)cn2)ccc1C#N [Example 329, 6-((4-((S)-3-aminopiperidin-1-yl)-5-(1-cyclopropyl-1H-pyrazol-4-yl)pyridin-2-yl)amino)-2-(2-fluoro-6-methoxyphenyl)nicotinonitrile hydrochloride] | ≤ 10 nM |
| COc1cccc(F)c1-c1nccc(Nc2cc(N3CCC[C@H](N)C3)c(-c3cnn(C4CCOCC4)c3)cn2)n1 [Example 52, (S)-N-(4-(3-aminopiperidin-1-yl)-5-(1-(tetrahydro-2H-pyran-4-yl)-1H-pyrazol-4-yl)pyridin-2-yl)-2-(2-fluoro-6-methoxyphenyl)pyrimidin-4-amine hydrochloride] | ≤ 10 nM |
| COc1cccc(F)c1-c1nc(Nc2cc(N3CCC[C@H](O)C3)c(C(=O)N[C@@H]3CC[C@@H](O)C3)cn2)ccc1N [Example 201, 6-((5-amino-6-(2-fluoro-6-methoxyphenyl)pyridin-2-yl)amino)-N-((1R,3R)-3-hydroxycyclopentyl)-4-((S)-3-hydroxypiperidin-1-yl)nicotinamide] | ≤ 10 nM |
| COc1cccc(F)c1-c1nc(Nc2cc(N3CCC[C@H](N)C3)c(-c3cnn(CC(F)(F)F)c3)cn2)ccc1[N+](=O)[O-] [Example 153, 4-((S)-3-aminopiperidin-1-yl)-N-(6-(2-fluoro-6-methoxyphenyl)-5-nitropyridin-2-yl)-5-(1-(2,2,2-trifluoroethyl)-1H-pyrazol-4-yl)pyridin-2-amine hydrochloride] | ≤ 10 nM |
